Here are results for 35 molecules from PubChem BioAssay (NCI).

Common to all, as to test: NCI-60 cell line screen, 48 h
The test system of experiment [1] is OVCAR-4 ovarian.
Experiment [2] has as its system CCRF-CEM leukemia.
Experiment [3] has as its system M14 melanoma.
In experiment [4] the test system is PC-3 prostate.
For experiment [5], the system named is A549 NSCLC.
For experiment [6], the system named is NCI-H460 lung.
Experiment [7] relates to MOLT-4 leukemia.
In experiment [8] the test system is KM12 colon.

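48-hour exposure; five concentrations; linearly interpolated endpoints. TGI marks complete inhibition of growth.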

For the molecule `Cc1nccn1S(=O)(=O)c1ccc(Cl)cc1`, the TGI in experiment [1], in experiment [2], in experiment [3], in experiment [4], in experiment [5] and in experiment [6] was above 100 µM in each case. In addition, the TGI in experiment [7] and in experiment [8] was above 100 µM in each case.

With `Nc1ccc(C(=O)O)cc1`, the TGI in experiment [1], in experiment [2], in experiment [3], in experiment [4], in experiment [5] and in experiment [6] was above 100 µM each time. Besides, the TGI in experiment [7] and in experiment [8] was above 100 µM throughout.

With `CCCCOc1ccc(S(=O)(=O)/N=C(\NO)Nc2ccc(Cl)cc2)cc1`, the TGI in experiment [1] came to 23.6 µM; in experiment [2], 62.1 µM; in experiment [3] it was 28.8 µM; in experiment [4], 29.7 µM; in experiment [5], 30.5 µM; in experiment [6], 32.7 µM. Further, the TGI turned out to be 31.8 µM in experiment [7] and 31.7 µM in experiment [8].

Regarding `CCN(CCC#N)C(=O)Nc1ccccc1`, the TGI in experiment [1], in experiment [2], in experiment [3], in experiment [4], in experiment [5] and in experiment [6] was above 100 µM in each case. For the same molecule, the TGI in experiment [7] and in experiment [8] was above 100 µM throughout.

On to `O=c1[nH]c2ccc(C(F)(F)F)cc2nc1C(F)(F)F`, for which the TGI was above 100 µM in experiment [1]; 42.7 µM in experiment [2]; above 100 µM in experiment [3]; 62.7 µM in experiment [4]; above 100 µM in experiment [5]; above 100 µM in experiment [6]. The values for the TGI in experiment [7] and in experiment [8] were 63.8 µM and 57.7 µM, respectively.

In the case of `CC(C)=CCC[C@@H](C)C1=C(O)C(Nc2ccccc2)=C(C)C(=O)C1=O`, the TGI in experiment [1] is above 100 µM; in experiment [2] it was 5.78 µM; in experiment [3], 34.9 µM; in experiment [4], above 100 µM; in experiment [5], 45.5 µM; in experiment [6], above 64.5 µM. For the same molecule, the values for the TGI in experiment [7] and in experiment [8] were above 72.2 µM and above 100 µM, respectively.

For the molecule `Cc1cc(O)c(C(C)C)cc1C(=S)Nc1ccc(Cl)cc1`, the TGI in experiment [1] worked out at 20.2 µM; in experiment [2], 16.7 µM; in experiment [4], 23 µM; in experiment [6], 27.4 µM; in experiment [7], 19 µM; in experiment [8], 23 µM.

For `COc1cccc(N(CN2C(=O)CCC2OC)C(C)=O)c1` (configuration not stated), the TGI in experiment [1], in experiment [2], in experiment [3], in experiment [4], in experiment [5] and in experiment [6] was above 100 µM each time. The TGI in experiment [7] and in experiment [8] was above 100 µM each time.

In the case of `c1ccc(OCc2nnc(CCCCCCCCc3nnc(COc4ccccc4)o3)o2)cc1`, the TGI in experiment [1], in experiment [2], in experiment [3], in experiment [4], in experiment [5] and in experiment [6] was above 100 µM throughout. In addition, the TGI in experiment [7] and in experiment [8] was above 100 µM in each case.

Turning to `Cc1ccc2c(c1)Nc1ccccc1P2(=O)O`, the TGI in experiment [1], in experiment [2], in experiment [3], in experiment [4], in experiment [5] and in experiment [6] was above 100 µM each time. Besides, the TGI in experiment [7] and in experiment [8] was above 100 µM throughout.

In the case of `CC(C)(C)OC(=O)NNCC(O)COc1ccccc1` (configuration not stated), the TGI in experiment [1], in experiment [2], in experiment [3], in experiment [4], in experiment [5] and in experiment [6] was above 100 µM each time. The TGI in experiment [7] was above 100 µM.

For the molecule `CCOP(=O)(Cc1nc(C#N)c(N)o1)OCC`, the TGI in experiment [1], in experiment [2], in experiment [4], in experiment [6], in experiment [7] and in experiment [8] was above 100 µM each time.

For the molecule `ClC1=C(Cl)C2OC3C=CCC3OC2C(Cl)=C1Cl` (configuration not stated), the TGI in experiment [1], in experiment [2], in experiment [3], in experiment [4], in experiment [6] and in experiment [7] was above 100 µM in each case. This molecule also gave a TGI in experiment [8] above 100 µM.

Consider `CCc1n[nH]c(=O)[nH]1`, for which the TGI in experiment [2], in experiment [3], in experiment [4], in experiment [5], in experiment [6] and in experiment [7] was above 100 µM in each case. For the same molecule, in experiment [8], the TGI is above 100 µM.

As for `Nc1ccn(CC(O)c2cc3ccccc3[nH]2)c(=O)n1` (configuration not stated), the TGI in experiment [1], in experiment [2], in experiment [3], in experiment [4], in experiment [5] and in experiment [6] was above 100 µM in each case. The TGI in experiment [7] and in experiment [8] was above 100 µM each time.

As to `CC1=NN2CCC(=O)N=C2S1`, the TGI in experiment [1], in experiment [2], in experiment [3], in experiment [4], in experiment [5] and in experiment [6] was above 100 µM in each case. Further, the TGI in experiment [7] and in experiment [8] was above 100 µM throughout.

With `OCC(S)CS.[Bi]` (configuration not stated), the TGI was 69.2 µM in experiment [1]; 5.22 µM in experiment [2]; 29.5 µM in experiment [3]; 27.3 µM in experiment [4]; above 100 µM in experiment [5]; above 100 µM in experiment [6]. Also, the TGI in experiment [8] was found to be 46.2 µM.

For `Cc1ccc(C(=O)N/N=C(\N=Nc2ccccc2C(=O)O)c2ccc(N(C)C)cc2)cc1`, the TGI in experiment [1], in experiment [2], in experiment [3], in experiment [4], in experiment [5] and in experiment [6] was above 100 µM throughout. Further, the TGI in experiment [7] and in experiment [8] was above 100 µM in each case.

With `C=C1CC(O)C2C(=C)C(=O)OC2C2C(C)C(=O)CC12` (configuration not stated), the TGI is 37.8 µM in experiment [1]; 41.4 µM in experiment [2]; 25.6 µM in experiment [3]; above 100 µM in experiment [4]; 41 µM in experiment [5]; 58 µM in experiment [6]. Also, the values for the TGI in experiment [7] and in experiment [8] were 39.2 µM and 56.9 µM, respectively.

With `Cc1oc2nc(N(C)C)n3cnnc3c2c1C`, the TGI in experiment [1], in experiment [2], in experiment [3], in experiment [4], in experiment [5] and in experiment [6] was above 100 µM in each case. Also, the TGI in experiment [7] and in experiment [8] was above 100 µM throughout.

Take `CCOC(=O)Cc1cc(=O)[nH]c(-n2[nH]c(C)c(CCO)c2=O)n1`: the TGI in experiment [1], in experiment [2], in experiment [3], in experiment [4], in experiment [5] and in experiment [6] was above 100 µM throughout. The TGI in experiment [8] is above 100 µM.

On to `N#Cc1c(N2CCCC2)nsc1Nc1ccccc1`, for which the TGI in experiment [1], in experiment [2], in experiment [3], in experiment [4], in experiment [5] and in experiment [6] was above 100 µM throughout. Further, the TGI in experiment [7] and in experiment [8] was above 100 µM throughout.

`CC1C(c2ccccc2)NC(c2ccccc2)CC1(N)C#N` (configuration not stated): the TGI in experiment [1], in experiment [2], in experiment [3], in experiment [4], in experiment [5] and in experiment [6] was above 100 µM in each case. The TGI in experiment [7] and in experiment [8] was above 100 µM throughout.

Consider `COc1ccc(/C=C2\OC(=O)C(Cl)=C2c2ccc(OC)c(Cl)c2)cc1`, for which the TGI in experiment [1] is 51.8 µM; in experiment [2] it was above 100 µM; in experiment [3], 76.9 µM; in experiment [4], above 100 µM; in experiment [5], above 100 µM; in experiment [6] it was 59 µM. The TGI in experiment [7] and in experiment [8] was above 100 µM each time.

Take `Cn1c2ccccc2c2c3c(c4c5ccccc5n(C)c4c21)C(=O)N(c1ccccc1)C3=O`: the TGI in experiment [1], in experiment [2], in experiment [3], in experiment [4], in experiment [5] and in experiment [6] was above 100 µM each time. The TGI in experiment [7] and in experiment [8] was above 100 µM throughout.

As for `NC(=S)NS(=O)(=O)c1ccc(Cl)cc1`, the TGI in experiment [1], in experiment [2], in experiment [3], in experiment [4], in experiment [5] and in experiment [6] was above 100 µM each time. For the same molecule, the TGI in experiment [7] and in experiment [8] was above 100 µM in each case.

As to `CCN(CC)C(=O)c1cc([N+](=O)[O-])c(=O)n2c1[nH]c1ccccc12`, the TGI in experiment [1], in experiment [2], in experiment [3], in experiment [4], in experiment [5] and in experiment [6] was above 100 µM each time. The TGI in experiment [7] and in experiment [8] was above 100 µM in each case.

`COC(=O)/C=C\C(C#N)(C#N)N=Cc1ccc(Br)cc1`: the TGI is 23.7 µM in experiment [1]; 5.91 µM in experiment [2]; 22.6 µM in experiment [3]; 32.4 µM in experiment [4]; above 74.8 µM in experiment [5]; 40.5 µM in experiment [6]. The values for the TGI in experiment [7] and in experiment [8] were above 22.4 µM and 29.3 µM, respectively.

For the molecule `Cc1cc(S(=O)(=O)Nc2n[nH]c(Nc3ccccc3)n2)c(SSc2cc(Cl)c(C)cc2S(=O)(=O)Nc2n[nH]c(Nc3ccccc3)n2)cc1Cl`, the TGI in experiment [1], in experiment [2], in experiment [3], in experiment [4], in experiment [5] and in experiment [6] was above 100 µM each time. The TGI in experiment [7] and in experiment [8] was above 100 µM throughout.

Regarding `CCOC(=O)C1=C(C)N(Cc2ccccc2)C2(O)C(OC)CC(=O)C3C(=O)N(c4ccccc4)C(=O)C132` (configuration not stated), the TGI in experiment [1] is 18.4 µM; in experiment [2], above 100 µM; in experiment [3], above 100 µM; in experiment [4] it was 50.8 µM; in experiment [5], above 100 µM; in experiment [6], above 100 µM. Also, the figures for the TGI in experiment [7] and in experiment [8] were 81.6 µM and 55.6 µM, respectively.

On to `Nc1c(C(=O)O)nnc2cc(Cl)ccc12`, for which the TGI in experiment [1], in experiment [2], in experiment [3], in experiment [4], in experiment [5] and in experiment [6] was above 100 µM throughout. Also, the TGI in experiment [7] and in experiment [8] was above 100 µM throughout.

Regarding `O=NNc1c[nH]c(=O)[nH]c1=O`, the TGI in experiment [1], in experiment [2], in experiment [3], in experiment [4], in experiment [5] and in experiment [7] was above 100 µM throughout. The molecule also gave a TGI in experiment [8] above 100 µM.

For the molecule `Cc1cc(OCc2nnc3n2N=C(c2cc(F)c(Cl)cc2Cl)/C(=C/c2ccc(-c4ccc(Cl)cc4)o2)S3)ccc1Cl`, the TGI in experiment [2], in experiment [3], in experiment [4], in experiment [5], in experiment [6] and in experiment [7] was above 50 µM in each case. In experiment [8], this molecule returned a TGI above 50 µM.

As to `CC(C)(CO)CNc1cc(Cl)nc(N)n1`, the TGI in experiment [1], in experiment [2], in experiment [4], in experiment [5], in experiment [6] and in experiment [7] was above 100 µM in each case. Moreover, in experiment [8], the TGI was above 100 µM.

For `NNS(=O)(=O)c1ccc(/C=C2\NC(=O)NC2=O)cc1`, the TGI in experiment [1], in experiment [2], in experiment [3], in experiment [4], in experiment [5] and in experiment [7] was above 100 µM each time. This molecule also showed a TGI in experiment [8] above 100 µM.
